Assay results as given in patent US20180057530A1, “CYCLIC PEPTIDE COMPOUND, AND PREPARATION AND USE THEREOF” (Zhejiang Hisun Pharmaceutical Co., Ltd., priority 2015, published 2018).
Where “and” joins values, the source holds several entries; their conditions need not be identical. Equal entries are not always repeated. Marks after values point to notes of the source that are not given here.

Legend:
[1] = tested on: chronic myelogenous leukemia cells (K562); experiment: MTT tumor cell growth inhibition, K562; type: cell-based; conditions: Homo sapiens, 72 hours, relative IC50
Description: (§1) The tetrazolium salt (MTT) reduction method was used to test the activity of the compounds of the present invention. Human breast cancer cells (MDA-MB-231) (CAS cell library; catalog number: TCHu227), human lung cancer cells (A549) (ATCC® Number: CRM-CCL-185™), human colon cancer cells (HCT-116) (CAS cell library; catalog number: TCHu99), acute monocytic leukemia cells (MV4-11) (ATCC® Number: CRL-9591™), tissue cell lymphoma cells (U-937) (CAS cell library; catalog number: TCHu159), human acute promyelocytic leukemia cells (HL-60) (ATCC® Number: CCL-240™), chronic myelogenous leukemia cells (of K562) (CAS cell library; catalog number: TCHu191), human hepatocellular carcinoma cells (BEL-7404) (CAS cell library; catalog number: TCHu64), human pancreatic cancer cells (BxPC3) (ATCC® Number: […])) and human prostate cancer cells (PC-3) (ATCC®Number: […]) were inoculated in 96-well plates, 90 μL/well, with 3000 to 8000 cells in respective well; in the first row of plate, 100 μL/well culture medium was added; the 96-well plate was pre-incubated in an incubator at 37° C., 5% CO2, and 100% relative humidity for 24 hours.
(§2) A compound was weighed and configured to a 10 mM/L stock solution, and the compound was diluted three-fold sequentially from the highest concentration of 2 millimoles (mM); 95 μl the corresponding cell medium was added to each well of a V-bottom dispensing plate; 5 μl of the compound on a 200× plate was transferred to a 10× dispensing plate according to the concentration; 5 μl of dimethylsulfoxide (DMSO) was evenly mixed in the corresponding 95 μl cell culture medium as a vehicle control. 10 μl of the compound-medium in each well of the 10× dispensing plate was added to a 96-well plate already plated with cells. […]
(§3) After the compound for cells was treated for 72 hours, 20 microliters of 5 mg/ml MTT was added to each well; all the steps need to be aseptic. […] The absorbance at 490 nm was read on a SpectraMax M2e instrument. The compound activity (relative IC50) was calculated using GraphPad Prism software.

[2] = tested on: acute monocytic leukemia cells (MV4-11); experiment: MTT tumor cell growth inhibition, MV4-11; type: cell-based; conditions: Homo sapiens; MV4-11, MTT, 72 hours, relative IC50
Description: as §1, §2, §3

tumor cells = experiment: MTT tumor cell growth inhibition, summary over the cell line panel; type: cell-based; conditions: ten tumor cell lines of Table 2, MTT, 72 hours; read-out: IC50 of tumor cell proliferation inhibition, span over the tested cell lines
Description: as §1, §2, §3

[3] = tested on: human prostate cancer cells (PC-3); experiment: MTT tumor cell growth inhibition, PC-3; type: cell-based; conditions: PC-3, MTT, 72 hours, relative IC50
Description: as §1, §2, §3

[4] = tested on: Human breast cancer cells (MDA-MB-231); experiment: MTT tumor cell growth inhibition, MDA-MB-231; type: cell-based; conditions: MDA-MB-231, MTT, 72 hours, relative IC50
Description: as §1, §2, §3

blood cells = experiment: Effect on blood phase, complete blood count (CBC) analysis; type: in vivo, BAB-C mice; conditions: 0.5 mg/kg; for PLT / RBC / WBC: mean±SD
Protocol: BAB-C mice (6 to 8 weeks old, a half being males and the other half females, weighing about 18 g-25 g, supplier: Beijing Vital River Laboratory Animal Technology Co., Ltd.) were raised for one week and then divided into three groups: normal control group, Romidepsin group, and compound A group. The normal group was injected with the vehicle; the drug group was injected with 0.5 mg/kg of the drug; 24 hours and 48 hours respectively after administration, a complete blood count (CBC) analysis was performed; for all the data, mean±standard deviation (mean±SD) was adopted; T tests were performed between inter-group data.

[5] = tested on: human lung cancer cell line NCI-H460; experiment: In vivo pharmacodynamic study of compound A, NCI-H460 nude mice transplanted tumor model; set-up: species or system BALB/C nude mice; conditions: q4d, 4x
Protocol: (§4) Female BALB/C nude mice 6 weeks to 8 weeks old and weighing about 19 g to 29 g were taken (Supplier: Beijing Vital River Laboratory Animal Technology Co., Ltd.) and raised for a week. A human cancer nude mice […] transplanted tumor model was established: Human breast cancer cell line MDA-MB-231 (ATCC® Number: HTB-26™) and human lung cancer cell line NCI-H460 (ATCC® Number: HTB-177™) were incubated. The monolayer tumor cells were digested and detached; then, they were collected and resuspended in a serum-free culture medium, and then were adjusted to a concentration of 2×10^6/0.2 mL. They were put into an iced box and brought to an animal house. A syringe with a No. 6 needle was used to directly take a 0.2 mL cell suspension and transplanted it into the rear subcutaneous scapular regions of the left axillaries of the nude mice at 2×10^6/0.2 mL per mouse. Tumor volumes were measured once every 2 days to 3 days. After two weeks, tumor-bearing nude mice with vigorous tumor growth and no ulceration were selected, the tumors were removed from them under sterile conditions. The tumor tissues were cut to about 2 mm to 3 mm in diameter and inoculated in the rear subcutaneous scapular regions of the left axillaries of the nude mice. After passage for three generations, when the tumor volume grew to 100 mm^3, nude mice with tumor masses that were too large or too small were removed and randomly grouped for administration.
(§5) The mice were randomly divided into five groups, including the negative control group (vehicle), positive control group (Romidepsin, 2.4 mg/kg), treatment group with the high, medium, and low doses of compound A (respectively 7.2 mg/kg, 4.8 mg/kg, 2.4 mg/kg, wherein the high dose was lower than the maximum tolerated dose, MTD); there were six nude mice in each group; intravenous administration was given every 4 days; 4 doses were given. During the period, the weights and tumor volumes of the animals were measured every 2 days, and the number of animal deaths was recorded. 24 hours after the last administration, the animals were sacrificed. The tumor volumes, tumor weights, and body weights of nude mice were measured; tumor volume growth curves, nude mice weight growth curves and tumor inhibition rates, mortality of the animals were plotted; the relative tumor proliferation rate T/C (%) was calculated; according to the formula T/C (%)=TRTV/CRTV*100%. (TRTV: treatment group RTV; CRTV: negative control group RTV, relative tumor volume RTV=Vt/V0, wherein V0 is the tumor volume at the time of administration by group; Vt is the post-administration tumor volume).

[6] = tested on: human hepatocellular carcinoma cells (BEL-7404); experiment: MTT tumor cell growth inhibition, BEL-7404; type: cell-based; conditions: BEL-7404, MTT, 72 hours, relative IC50
Description: as §1, §2, §3

[7] = tested on: tissue cell lymphoma cells (U-937); experiment: MTT tumor cell growth inhibition, U-937; type: cell-based; conditions: Homo sapiens; U-937, MTT, 72 hours, relative IC50
Description: as §1, §2, §3

[8] = tested on: human lung cancer cells (A549); experiment: MTT tumor cell growth inhibition, A549; type: cell-based; conditions: 72 hours, relative IC50
Description: as §1, §2, §3

[9] = tested on: human acute promyelocytic leukemia cells (HL-60); experiment: MTT tumor cell growth inhibition, HL-60; type: cell-based; conditions: HL-60, MTT, 72 hours, relative IC50
Description: as §1, §2, §3

[10] = tested on: human pancreatic cancer cells (BxPC3); experiment: MTT tumor cell growth inhibition, BxPC3; type: cell-based; conditions: BXPC-3, 72 hours, relative IC50
Description: as §1, §2, §3

[11] = tested on: Human breast cancer cell line MDA-MB-231; experiment: In vivo pharmacodynamic study of compound A, MDA-MB-231 nude mice transplanted tumor model; set-up: species or system BALB/C nude mice; conditions: MDA-MB-231 model, q4d, 4x
Protocol: as §4, §5

[12] = tested on: human colon cancer cells (HCT-116); experiment: MTT tumor cell growth inhibition, HCT-116; type: cell-based; conditions: HCT-116, MTT, 72 hours, relative IC50
Description: as §1, §2, §3

MDA-MB-231 breast cancer = experiment: In vivo efficacy study of compound B, xenografted MDA-MB-231 breast cancer; set-up: species or system BALB/c nude mice; conditions: once a week for four weeks; for Day 28 tumor volume: mean ± standard error
Protocol: Female BALB/C nude mice 6 weeks to 8 weeks old and weighing about 19 g to 29 g were taken and raised for one week (supplier: Beijing Vital River Laboratory Animal Technology Co., Ltd.) MDA-MB-231 (ATCC® Number: HTB-26™) breast cancer cells were cultured in vitro; the culture conditions were: 10% fetal bovine serum was added to an L-15 medium, 37° C., and 0% CO2. Passage was performed twice a week. When the cells were in the exponential growth phase, the cells were collected, counted, and inoculated. […] The cells were suspended in phosphate buffered saline (PBS) and Matrigel (1:1) was added. A total of 50 mice were inoculated. […] The experimental indicator was to examine whether the tumor growth was inhibited, delayed, or subsided. Tumor diameter was measured three times a week with a vernier caliper. The formula for calculating tumor volume is as follows: […] The antitumor efficacy of the compound was evaluated with T/C (%) and of TGI. […] T0 indicates the mean tumor volume of the treatment group at the time of administration by cage; Vi indicates the mean tumor volume of the vehicle group on the same day; V0 indicates the mean tumor volume of the vehicle group at the time of administration by cage. At the end of the experiment, the tumors were stripped, weighed, and photographed.

[13] = mice, 24 h after administration
[14] = mice, 48 h after administration

Compound	IC50 [1] [nM]	IC50 [2] [nM]	IC50 (tumor cells) [nM]	IC50 [3] [nM]	IC50 [4] [nM]	Relative tumor proliferation rates T/C (%) ([5]; 2.4 mg/kg)	IC50 [6] [nM]	IC50 [7] [nM]	IC50 [8] [nM]	IC50 [9] [nM]	IC50 [10] [nM]	Relative tumor proliferation rates T/C (%) ([11]; 2.4 mg/kg)	IC50 [12] [nM]	Day 28 tumor volume (MDA-MB-231 breast cancer; 6.6 mg/kg intravenous)	T/C (%) (MDA-MB-231 breast cancer; day 28, 6.6 mg/kg intravenous)	TGI (%) (MDA-MB-231 breast cancer; day 28, 6.6 mg/kg intravenous)	further results
C/C=C1\NC(=O)[C@H]2C[S+]([O-])SCC/C=C/[C@H](CC(=O)N[C@H](C(C)C)C(=O)N2)OC(=O)[C@H](C(C)C)NC1=O (stereo partly shown) [Compound A]	23.2	33	9.7 to 35.9	11.9	9.7	44%(2.4 mg/kg, q4d, 4x)	10	22.8	10.7	35.9	13.9	45.5%(2.4 mg/kg, q4d, 4x)	29.3	–	–	–	PLT compared with the normal group (blood cells; mouse, in vivo): significantly decreased; WBCs compared with the normal group (blood cells; mouse, in vivo): no significant difference compared with the normal group; Relative tumor proliferation rates T/C (%) ([5]; 4.8 mg/kg): 38.6%(4.8 mg/kg, q4d, 4x); Relative tumor proliferation rates T/C (%) ([5]; 7.2 mg/kg): 25.2%(7.2 mg/kg, q4d, 4x); Relative tumor proliferation rates T/C (%) ([11]; 4.8 mg/kg): 35.4%(4.8 mg/kg, q4d, 4x); Relative tumor proliferation rates T/C (%) ([11]; 7.2 mg/kg): 29.8%(7.2 mg/kg, q4d, 4x)
C/C=C1\NC(=O)[C@H]2CS[S+]([O-])CC/C=C/[C@H](CC(=O)N[C@H](C(C)C)C(=O)N2)OC(=O)[C@H](C(C)C)NC1=O (stereo partly shown) [Compound B]	2.6	4.8	2 to 6.5	6.1	2	–	4.9	5.4	3.6	3.4	6.5	–	6.1	187 ± 29 mm^3	4.5	95.5	Day 28 tumor volume (MDA-MB-231 breast cancer; 2.2 mg/kg intravenous): 259 ± 47 mm^3; Day 28 tumor volume (MDA-MB-231 breast cancer; 2.2 mg/kg intravenous, listed as compound B): 259 mm^3; Day 28 tumor volume (MDA-MB-231 breast cancer; 4.4 mg/kg intravenous): 202 ± 38 mm^3; Day 28 tumor volume (MDA-MB-231 breast cancer; 4.4 mg/kg intravenous, listed as compound B): 202 mm^3; Day 28 tumor volume (MDA-MB-231 breast cancer; 6.6 mg/kg intravenous, listed as compound B): 187 mm^3; T/C (%) (MDA-MB-231 breast cancer; day 28, 2.2 mg/kg intravenous): 11.3%; TGI (%) (MDA-MB-231 breast cancer; day 28, 2.2 mg/kg intravenous): 88.7%; T/C (%) (MDA-MB-231 breast cancer; day 28, 4.4 mg/kg intravenous): 5.9%; TGI (%) (MDA-MB-231 breast cancer; day 28, 4.4 mg/kg intravenous): 94.1%
C/C=C1\NC(=O)[C@H]2CSSCC/C=C/[C@H](CC(=O)N[C@H](C(C)C)C(=O)N2)OC(=O)[C@H](C(C)C)NC1=O [Romidepsin, reference compound]	4.1	6.8	3.6 to 8.7	7.1	3.6	42.2%(2.4 mg/kg, q4d, 4x)	6.4	7.2	5.2	8.6	8.7	48.9%(2.4 mg/kg, q4d, 4x)	6.5	260 mm^3 and 260 ± 103 mm^3	11.4	88.6	PLT (blood cells; [13]): 600.56 ± 71.51** 1 × 10*9/L; RBC (blood cells; [13]): 10.30 ± 0.47 1 × 10*12/L; WBC (blood cells; [13]): 4.32 ± 2.61** 1 × 10*9/L; PLT (blood cells; [14]): 431.31 ± 64.96** 1 × 10*9/L; RBC (blood cells; [14]): 10.23 ± 0.78 1 × 10*12/L; WBC (blood cells; [14]): 6.92 ± 3.29** 1 × 10*9/L; WBC count decrease (blood cells; mice, at 24 h, vs normal group): 75%; PLT compared with the normal group (blood cells; mice, at 24 h and 48 h): significantly decreased; WBC count restored to percent of the normal group (blood cells; mice, at 48 h): 40%
